How the values were obtained:
[1] = system: MC38 tumor cells; test: MC38 tumor model, subcutaneous, tumor growth, survival and flow cytometry of tumor infiltrating cells; assay type: in vivo, C57BI6/N mice
Protocol: FIG. 3: (A) Average tumor growth kinetics and overall survival monitored for the MC38 tumor model after treatment start. Treatment regimes are indicated by indeces 1 to 4 in the figure and represent: (1) 10 ml/kg vehicle+10 mg/kg mIgG1e ctrl. (2) 10 ml/kg vehicle+10 mg/kg α-muPD-1 (3) 25 mg/kg compound E9+10 mg/kg mIgG1e ctrl. and (4) 25 mg/kg compound E9+10 mg/kg α-mu-PD-1 (B) Tumor infiltrating cytotoxic T cells (CTL), CTL to regulatory T cell ratio, tumor associated M2-macrohages (M2-TAM) and M2-like TAM were analyzed by flow cytometry.
MC38 tumor cells were subcutaneously implanted in C57BI6/N mice, randomized at an average tumor volume of 100 mm^3 and tumor bearing mice were treated twice daily with 25 mg/kg compound E9 by oral gavage and twice weekly, intraperitoneal with 10 mg/kg anti-murine-PD-1 mAb (clone: RMP1-14) or corresponding controls.

[2] = system: KLN205 tumor cells; test: KLN205 lung squamous cell carcinoma model, subcutaneous, tumor growth; assay type: in vivo, DBA/2 mice; settings: compared to control, E9 25 mg/kg twice daily oral, anti-murine-PD-1 mAb 10 mg/kg twice weekly i.p.
Protocol: FIG. 4: (A) Average tumor growth kinetics and overall survival monitored for the EMT6 tumor model after treatment start. […] Treatment regimes are indicated by indeces 1 to 4 in the figure and represent: (1) 10 ml/kg vehicle+10 mg/kg mIgG1e ctrl. (2) 10 ml/kg vehicle+10 mg/kg α-mu-PD-1 (3) 12.5 mg/kg compound E9+10 mg/kg mIgG1e ctrl. and (4) 12.5 mg/kg compound E9+10 mg/kg α-mu-PD-1 (B) Average tumor growth kinetics for the KLN205 tumor model upon initiation of therapy; Treatment regimes are indicated by indeces 1 to 4 in the figure and represent: (1) 10 ml/kg vehicle+10 mg/kg mIgG1e ctrl. (2) 10 ml/kg vehicle+10 mg/kg α-mu-PD-1 (3) 25 mg/kg compound E9+10 mg/kg mIgG1e ctrl. And (4) 25 mg/kg compound E9+10 mg/kg α-mu-PD-1.
EMT6 tumor cells were implanted into mammary fat pad in BALB/c mice and randomized at an average tumor volume of 65mm^3. KLN205 tumor cells were subcutaneously implanted in DBA/2 mice and randomized at an average tumor volume of 60 mm^3. Both animal models were treated twice daily by oral gavage with the indicated doses of compound E9 and twice weekly, intraperitoneal with 10 mg/kg anti-murine-PD-1 mAb (clone: RMP1-14) or corresponding controls.

[3] = monotherapy, 25 mg/kg E9 twice daily by oral gavage

Structure (SMILES): Cc1nc(Nc2ncc(C(=O)Nc3c(CF)csc3Cl)s2)cc(N2CCN(C)CC2)n1 [E9, N-(2-chloro-4-(fluoromethyl)thiophen-3-yl)-2-((2-methyl-6-(4-methylpiperazin-1-yl)pyrimidin-4-yl)amino)thiazole-5-carboxamide]
- CTL to Treg ratio ([1]; flow cytometry): promotion
- cytotoxic T lymphocyte (CTL) activity ([1]; flow cytometry): activating
- immunosuppressive myeloid cells in tumour microenvironment ([1]; flow cytometry): reducing
- regulatory T cells (Treg) in tumour microenvironment ([1]; flow cytometry): reducing
- anti-tumor efficacy [1, 3]: highly significant anti-tumor efficacy
- survival [1, 3]: prolonged survival
- Growth inhibition (TGI) [2]: 22%
